Results published in patent publication US20230278972A1, “SUBSTITUTED HALOALKYL SULFONANILIDE HERBICIDES” (FMC Corporation, priority 2020, published 2023).

How the values were obtained:
Type in all cases: in vivo
[1] = system: Ryegrass, Italian (Italian ryegrass, Lolium multiflorum); experiment: Test A preemergence, Ryegrass, Italian; details: Preemergence; for Ryegrass, Italian plant response rating: 125 g ai/ha, visual injury on 0 to 100 scale (0 no effect, 100 complete control), approximately 10 days; for Plant response rating, Ryegrass, Italian: 0 to 100 scale (0 no effect, 100 complete control)
How it was run: (§1)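 Pots: loam soil/sand blend. Pre: directed soil spray at planting. Post: plants 2–10 cm, 1–2 leaf stage. Formulation: non-phytotoxic solvent + surfactant.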

[2] = system: Foxtail, Giant (giant foxtail, Setaria faberi); experiment: Test A postemergence, Foxtail, Giant; details: Postemergence, 0 to 100 scale (0 no effect, 100 complete control)
How it was run: as §1

[3] = system: pigweed (Amaranthus retroflexus); experiment: Test A preemergence, pigweed; details: for Pigweed plant response rating: 125 g ai/ha, visual injury on 0 to 100 scale (0 no effect, 100 complete control), approximately 10 days; for Plant response rating, Pigweed: 0 to 100 scale (0 no effect, 100 complete control)
How it was run: (§2)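 Seeds are sown in loam mixed with sand and sprayed on the soil surface right after planting for the preemergence test. Postemergence pots are sprayed once seedlings reach 2 to 10 cm at the one- to two-leaf stage. The same surfactant-containing, non-phytotoxic solvent formulation serves both.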

[4] = system: ragweed (common ragweed, Ambrosia artemisiifolia); experiment: Test A preemergence, ragweed; details: Preemergence; for Ragweed plant response rating: 125 g ai/ha, visual injury on 0 to 100 scale (0 no effect, 100 complete control), approximately 10 days; for Plant response rating, Ragweed: 0 to 100 scale (0 no effect, 100 complete control)
How it was run: as §1

[5] = system: galium (catchweed bedstraw, Galium aparine); experiment: Test A postemergence, galium; details: Postemergence, 0 to 100 scale (0 no effect, 100 complete control)
How it was run: as §2

[6] = system: Ryegrass, Italian (Italian ryegrass, Lolium multiflorum); experiment: Test A postemergence, Ryegrass, Italian; details: Postemergence, 0 to 100 scale (0 no effect, 100 complete control)
How it was run: as §1

[7] = system: barnyardgrass (Echinochloa crus-galli); experiment: Test A preemergence, barnyardgrass; details: Preemergence; for Barnyardgrass plant response rating: 125 g ai/ha, visual injury on 0 to 100 scale (0 no effect, 100 complete control), approximately 10 days; for Plant response rating, Barnyardgrass: 0 to 100 scale (0 no effect, 100 complete control)
How it was run: as §1

[8] = system: barnyardgrass (Echinochloa crus-galli); experiment: Test A postemergence, barnyardgrass; details: Postemergence, 0 to 100 scale (0 no effect, 100 complete control)
How it was run: as §2

[9] = system: wheat (Triticum aestivum); experiment: Test A postemergence, wheat; details: Postemergence, 0 to 100 scale (0 no effect, 100 complete control)
How it was run: as §2

[10] = system: corn (Zea mays); experiment: Test A postemergence, corn; details: Postemergence, 0 to 100 scale (0 no effect, 100 complete control)
How it was run: as §1

[11] = system: kochia (Bassia scoparia); experiment: Test A postemergence, kochia; details: Postemergence, 0 to 100 scale (0 no effect, 100 complete control)
How it was run: as §1

[12] = system: ragweed (common ragweed, Ambrosia artemisiifolia); experiment: Test A postemergence, ragweed; details: Postemergence, 0 to 100 scale (0 no effect, 100 complete control)
How it was run: as §1

[13] = system: pigweed (Amaranthus retroflexus); experiment: Test A postemergence, pigweed; details: Postemergence, 0 to 100 scale (0 no effect, 100 complete control)
How it was run: as §1

[14] = system: blackgrass (Alopecurus myosuroides); experiment: Test A postemergence, blackgrass; details: Postemergence, 0 to 100 scale (0 no effect, 100 complete control)
How it was run: as §1

[15] = system: kochia (Bassia scoparia); experiment: Test A preemergence, kochia; details: Preemergence; for Kochia plant response rating: 125 g ai/ha, visual injury on 0 to 100 scale (0 no effect, 100 complete control), approximately 10 days; for Plant response rating, Kochia: 0 to 100 scale (0 no effect, 100 complete control)
How it was run: as §1

[16] = system: Foxtail, Giant (giant foxtail, Setaria faberi); experiment: Test A preemergence, Foxtail, Giant; details: Preemergence; for Foxtail, Giant plant response rating: 125 g ai/ha, visual injury on 0 to 100 scale (0 no effect, 100 complete control), approximately 10 days; for Plant response rating, Foxtail, Giant: 0 to 100 scale (0 no effect, 100 complete control)
How it was run: as §1

[17] = 125 g ai/ha, visual injury approx. 10 days
[18] = 500 g ai/ha, visual injury, approx. 10 days
[19] = 31 g ai/ha, visual injury, approx. 10 days

SMILES | Ryegrass, Italian plant response rating [1] | Plant response rating, Ryegrass, Italian ([1]; 500 g ai/ha) | Plant response rating, Foxtail, Giant [2, 17] | Plant response rating, Foxtail, Giant [2, 18] | Pigweed plant response rating [3] | Plant response rating, Pigweed ([3]; 500 g ai/ha) | Ragweed plant response rating [4] | Plant response rating, Ragweed ([4]; 500 g ai/ha) | Plant response rating, Galium [5, 17] | Plant response rating, Ryegrass, Italian [6, 17] | Barnyardgrass plant response rating [7] | Plant response rating, Barnyardgrass [8, 17] | Plant response rating, Wheat [9, 17] | Plant response rating, Corn [10, 17] | Plant response rating, Kochia [11, 17] | Plant response rating, Ragweed [12, 17] | Plant response rating, Pigweed [13, 17] | Plant response rating, Blackgrass [14, 17] | Kochia plant response rating [15] | Foxtail, Giant plant response rating [16] | also measured
CCn1cc(-c2cc(N(S(=O)(=O)C(F)(F)F)S(=O)(=O)C(F)(F)F)c(C)cc2C)c(=O)n(C)c1=O [Compound 30] | 90 | 90 | 70 | 90 | 20 | 60 | 20 | 40 | 70 | 40 | 90 | 90 | 60 | 0 | 10 | 40 | 40 | 60 | 70 | 80 | Plant response rating, Galium [5, 18]: 90; Plant response rating, Ryegrass, Italian [6, 18]: 70; Plant response rating, Barnyardgrass ([7]; 500 g ai/ha): 90; Plant response rating, Barnyardgrass [8, 18]: 90; Plant response rating, Wheat [9, 18]: 70; Plant response rating, Corn [10, 18]: 40; Plant response rating, Kochia [11, 18]: 50; Plant response rating, Ragweed [12, 18]: 40; Plant response rating, Pigweed [13, 18]: 60; Plant response rating, Blackgrass [14, 18]: 80; Plant response rating, Kochia ([15]; 500 g ai/ha): 90; Plant response rating, Foxtail, Giant ([16]; 500 g ai/ha): 100
CCn1cc(-c2cc(NS(=O)(=O)C(F)(F)F)c(C)cc2C)c(=O)n(C)c1=O [Compound 32] | 100 | 100 | 90 | 90 | 20 | 60 | 0 | 50 | 70 | 80 | 100 | 90 | 70 | 10 | 20 | 30 | 10 | 90 | 60 | 100 | Plant response rating, Galium [5, 18]: 90; Plant response rating, Ryegrass, Italian [6, 18]: 90; Plant response rating, Barnyardgrass ([7]; 500 g ai/ha): 100; Plant response rating, Barnyardgrass [8, 18]: 90; Plant response rating, Wheat [9, 18]: 70; Plant response rating, Corn [10, 18]: 80; Plant response rating, Kochia [11, 18]: 40; Plant response rating, Ragweed [12, 18]: 60; Plant response rating, Pigweed [13, 18]: 20; Plant response rating, Blackgrass [14, 18]: 90; Plant response rating, Kochia ([15]; 500 g ai/ha): 90; Plant response rating, Foxtail, Giant ([16]; 500 g ai/ha): 100
COc1cc(-c2cc(N(S(=O)(=O)C(F)(F)F)S(=O)(=O)C(F)(F)F)c(C)cc2C)c(=O)n(C)n1 [Compound 35] | 40 | 50 | 0 | 10 | 50 | 80 | 20 | 80 | 60 | 0 | 70 | 0 | 0 | 0 | 0 | 0 | 30 | 20 | 0 | 60 | Plant response rating, Galium [5, 18]: 70; Plant response rating, Ryegrass, Italian [6, 18]: 40; Plant response rating, Barnyardgrass ([7]; 500 g ai/ha): 90; Plant response rating, Barnyardgrass [8, 18]: 80; Plant response rating, Wheat [9, 18]: 40; Plant response rating, Corn [10, 18]: 0; Plant response rating, Kochia [11, 18]: 10; Plant response rating, Ragweed [12, 18]: 40; Plant response rating, Pigweed [13, 18]: 60; Plant response rating, Blackgrass [14, 18]: 30; Plant response rating, Kochia ([15]; 500 g ai/ha): 20; Plant response rating, Foxtail, Giant ([16]; 500 g ai/ha): 90
CSc1cc(-c2cc(NS(=O)(=O)C(F)(F)F)c(C)cc2C)c(=O)n(C)n1 [Compound 36] | 60 | – | 0 | – | 10 | – | 0 | – | 40 | 10 | 50 | 0 | 50 | 0 | 20 | 0 | 30 | 0 | 0 | 80 | Plant response rating, Ryegrass, Italian [1, 19]: 0; Plant response rating, Foxtail, Giant ([2]; 31 g ai/ha): 0; Plant response rating, Pigweed [3, 19]: 0; Plant response rating, Ragweed [4, 19]: 0; Plant response rating, Galium ([5]; 31 g ai/ha): 20; Plant response rating, Ryegrass, Italian ([6]; 31 g ai/ha): 20; Plant response rating, Barnyardgrass [7, 19]: 0; Plant response rating, Barnyardgrass ([8]; 31 g ai/ha): 0; Plant response rating, Wheat ([9]; 31 g ai/ha): 0; Plant response rating, Corn ([10]; 31 g ai/ha): 0; Plant response rating, Kochia ([11]; 31 g ai/ha): 10; Plant response rating, Ragweed ([12]; 31 g ai/ha): 0; Plant response rating, Pigweed ([13]; 31 g ai/ha): 0; Plant response rating, Blackgrass ([14]; 31 g ai/ha): 0; Plant response rating, Kochia [15, 19]: 0; Plant response rating, Foxtail, Giant [16, 19]: 20
CCn1c(=O)c(-c2cc(NS(=O)(=O)C(F)(F)F)c(C)cc2C)cn(C)c1=O [Compound 37] | 100 | 100 | 90 | 90 | 50 | 90 | 40 | 80 | 90 | 90 | 90 | 90 | 80 | 20 | 60 | 30 | 50 | 80 | 80 | 100 | Plant response rating, Galium [5, 18]: 100; Plant response rating, Ryegrass, Italian [6, 18]: 90; Plant response rating, Barnyardgrass ([7]; 500 g ai/ha): 90; Plant response rating, Barnyardgrass [8, 18]: 90; Plant response rating, Wheat [9, 18]: 80; Plant response rating, Corn [10, 18]: 80; Plant response rating, Kochia [11, 18]: 70; Plant response rating, Ragweed [12, 18]: 70; Plant response rating, Pigweed [13, 18]: 50; Plant response rating, Blackgrass [14, 18]: 90; Plant response rating, Kochia ([15]; 500 g ai/ha): 90; Plant response rating, Foxtail, Giant ([16]; 500 g ai/ha): 100
